# Results taken from PubChem BioAssay AID330 (DTP/NCI, 2004).
# Several values for one entry are separate records, joined by “and”; a condition that tells them apart may be missing. Identical values can stand only once. Toxic doses and inconclusive results are not listed. Square brackets hold non-standard residues; d marks the D form. Peptide text beside a SMILES is read from it. Ac5c = NC1(C(=O)O)CCCC1; Sar = CNCC(=O)O
# Tested on: P388 leukemia ip, CD2F1 mice, survival T/C
# Assay: NCI In Vivo Anticancer Drug Screen. Data for tumor model P388 Leukemia (intraperitoneal) in CD2F1 (CDF1) mice
# Settings: endpoint: median survival time, higher = longer survival
# In short: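 Mice carrying the transplanted tumor received test compound or vehicle. Survival was recorded in each group, and the value is the treated-group measurement divided by that of the vehicle-treated control group.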
# [1] = dose: 1.56 mg/kg/injection, schedule: Q01DX009 (ip), vehicle: water
# [2] = dose: 3.13 mg/kg/injection, schedule: Q01DX009 (ip), vehicle: water
# [3] = dose: 6.25 mg/kg/injection, schedule: Q01DX009 (ip), vehicle: water
# [4] = dose: 12.5 mg/kg/injection, schedule: Q01DX009 (ip), vehicle: water
# [5] = dose: 25.0 mg/kg/injection, schedule: Q01DX009 (ip), vehicle: water
# [6] = dose: 50.0 mg/kg/injection, schedule: Q01DX005 (ip), vehicle: saline with Tween-80
# [7] = dose: 100.0 mg/kg/injection, schedule: Q01DX005 (ip), vehicle: saline with Tween-80
# [8] = dose: 200.0 mg/kg/injection, schedule: Q01DX005 (ip), vehicle: saline with Tween-80
# [9] = dose: 60.0 mg/kg/injection, schedule: Q01DX005 (ip), vehicle: saline with Tween-80
# [10] = dose: 120.0 mg/kg/injection, schedule: Q01DX005 (ip), vehicle: saline with Tween-80
# [11] = dose: 50.0 mg/kg/injection, schedule: Q01DX005 (ip), vehicle: Klucel (hydroxypropylcellulose) (HPC)
# [12] = dose: 100.0 mg/kg/injection, schedule: Q01DX005 (ip), vehicle: Klucel (hydroxypropylcellulose) (HPC)
# [13] = dose: 200.0 mg/kg/injection, schedule: Q01DX005 (ip), vehicle: Klucel (hydroxypropylcellulose) (HPC)
# [14] = dose: 50.0 mg/kg/injection, schedule: Q01DX009 (ip), vehicle: saline with Tween-80
# [15] = dose: 100.0 mg/kg/injection, schedule: Q01DX009 (ip), vehicle: saline with Tween-80
# [16] = dose: 100.0 mg/kg/injection, schedule: Q04DX003 (ip), vehicle: saline with Tween-80
# [17] = dose: 200.0 mg/kg/injection, schedule: Q04DX003 (ip), vehicle: saline with Tween-80
# [18] = dose: 100.0 mg/kg/injection, schedule: Q04DX003 (ip), vehicle: saline
# [19] = dose: 60.0 mg/kg/injection, schedule: Q01DX005 (ip), vehicle: Klucel (hydroxypropylcellulose) (HPC)
# [20] = dose: 120.0 mg/kg/injection, schedule: Q01DX005 (ip), vehicle: Klucel (hydroxypropylcellulose) (HPC)
# [21] = dose: 240.0 mg/kg/injection, schedule: Q01DX005 (ip), vehicle: Klucel (hydroxypropylcellulose) (HPC)
# [22] = dose: 50.0 mg/kg/injection, schedule: Q01DX009 (ip), vehicle: Klucel (hydroxypropylcellulose) (HPC)
# [23] = dose: 100.0 mg/kg/injection, schedule: Q01DX009 (ip), vehicle: Klucel (hydroxypropylcellulose) (HPC)
compound,measurement,setting,value
COc1cccc2c1C(=O)c1c(O)c3c(c(O)c1C2=O)CC(O)(c1csc(N2CCN(C)CC2)n1)CC3O (stereo not drawn),T/C,[1],87 % of control
same,T/C,[2],93 % of control
same,T/C,[3],110 % of control
same,T/C,[4],110 % of control
same,T/C,[5],105 % of control and 116 % of control
same,T/C,"dose: 50.0 mg/kg/injection, schedule: Q01DX009 (ip), vehicle: water",102 % of control
same,T/C,"dose: 100.0 mg/kg/injection, schedule: Q01DX009 (ip), vehicle: water",107 % of control
CC(O)C(NC(=O)C(Cc1ccc(O)cc1)NC(=O)C(CCCCN)N(C(=O)OCc1ccccc1)C(=O)OCc1ccccc1)C(=O)OCc1ccccc1 (stereo not drawn),T/C,[6],94 % of control
same,T/C,[7],92 % of control
same,T/C,[8],93 % of control
CCCCCCn1c(=O)cc2n(c1=O)CCC2,T/C,[9],103 % of control
same,T/C,[10],101 % of control
CC(C)NC(=O)OCc1c(COC(=O)NC(C)C)c(S(=O)(=O)c2ccccc2)n2c1CCC2,T/C,"dose: 25.0 mg/kg/injection, schedule: Q01DX005 (ip), vehicle: saline with Tween-80",89 % of control
same,T/C,[6],86 % of control
same,T/C,[7],90 % of control
same,T/C,[8],93 % of control
O=C1C2CCCN2C(=S)N1c1ccc([N+](=O)[O-])cc1 (stereo not drawn),T/C,[11],100 % of control
same,T/C,[12],100 % of control
same,T/C,[13],99 % of control
CCOc1ccccc1NC(=O)CC(=O)N1N=C(C)C(N=Nc2ccccc2C(=O)O)C1=O (stereo not drawn),T/C,[6],108 % of control
same,T/C,[7],104 % of control
same,T/C,[8],92 % of control
Cc1cc(SCC(=O)c2ccc(Br)cc2)cc(C)[o+]1,T/C,[14],100 % of control
same,T/C,[15],86 % of control
same,T/C,[16],104 % of control
same,T/C,[17],114 % of control
CC(C)(C)OC(=O)NC(CCC(N)=O)C(=O)O (stereo not drawn),T/C,"dose: 50.0 mg/kg/injection, schedule: Q01DX005 (ip), vehicle: saline",104 % of control
same,T/C,"dose: 100.0 mg/kg/injection, schedule: Q01DX005 (ip), vehicle: saline",104 % of control
same,T/C,"dose: 200.0 mg/kg/injection, schedule: Q01DX005 (ip), vehicle: saline",103 % of control
COc1cc(C(C)=O)c(C2=NC(C)(C)CO2)cc1C,T/C,[6],101 % of control
same,T/C,[7],98 % of control
same,T/C,[8],97 % of control
CN(C)CCc1ccccn1,T/C,"dose: 25.0 mg/kg/injection, schedule: Q04DX003 (ip), vehicle: saline",101 % of control
same,T/C,"dose: 50.0 mg/kg/injection, schedule: Q04DX003 (ip), vehicle: saline",115 % of control
same,T/C,[18],94 % of control
O=c1c2ccccc2c2ccccc2c(=O)n1-c1cc2c3ccccc3ccc2c2ccccc12,T/C,[19],100 % of control
same,T/C,[20],99 % of control
same,T/C,[21],95 % of control
O/N=C/c1cccc[n+]1Cc1ccccc1,T/C,[1],102 % of control
same,T/C,[2],101 % of control
same,T/C,[3],102 % of control
same,T/C,[4],102 % of control
same,T/C,[5],107 % of control
CCCCCCCCCCCCCC(=O)OC1C(C)C2(O)C(C=C(CO)CC3(O)C(O)C(C)=CC32)C2C(C)(C)C12OC(C)=O (stereo not drawn),T/C,"dose: 0.12 mg/kg/injection, schedule: Q01DX009 (ip), vehicle: saline",106 % of control
same,T/C,"dose: 0.25 mg/kg/injection, schedule: Q01DX009 (ip), vehicle: saline",101 % of control
same,T/C,"dose: 0.5 mg/kg/injection, schedule: Q01DX009 (ip), vehicle: saline",111 % of control
same,T/C,"dose: 1.0 mg/kg/injection, schedule: Q01DX009 (ip), vehicle: saline",99 % of control
same,T/C,"dose: 2.0 mg/kg/injection, schedule: Q01DX009 (ip), vehicle: saline",101 % of control
CCC(C)(C)N=C(NC(=O)C(F)(F)F)Nc1cccnc1,T/C,[16],93 % of control
same,T/C,[17],94 % of control
CCCCN(CCCC)c1cc(C(=O)CCCCCN)c2ccccc2n1,T/C,"dose: 6.25 mg/kg/injection, schedule: Q01DX005 (ip), vehicle: saline",97 % of control
same,T/C,"dose: 12.5 mg/kg/injection, schedule: Q01DX005 (ip), vehicle: saline",90 % of control
same,T/C,"dose: 25.0 mg/kg/injection, schedule: Q01DX005 (ip), vehicle: saline",90 % of control and 94 % of control
COC1=CC(=O)C(O)=C(CC2(C)C(C)CCC3(C)C2CCCC3(C)C)C1=O (stereo not drawn),T/C,[22],112 % of control
same,T/C,[23],112 % of control
CNCC(=O)NC1(C(=O)O)CCCC1 (H-[Sar]-[Ac5c]-OH),T/C,"dose: 50.0 mg/kg/injection, schedule: Q01DX009 (ip), vehicle: saline",100 % of control
same,T/C,"dose: 100.0 mg/kg/injection, schedule: Q01DX009 (ip), vehicle: saline",94 % of control
same,T/C,"dose: 200.0 mg/kg/injection, schedule: Q01DX009 (ip), vehicle: saline",109 % of control
Cn1c2nc(-[n+]3ccc(N4CCOCC4)cc3)nc-2c([O-])n(C)c1=O,T/C,[18],100 % of control
same,T/C,"dose: 200.0 mg/kg/injection, schedule: Q04DX003 (ip), vehicle: saline",101 % of control
same,T/C,"dose: 400.0 mg/kg/injection, schedule: Q04DX003 (ip), vehicle: saline",100 % of control
COc1ccc(Nc2c3ccccc3nc3ccccc23)cc1,T/C,"dose: 12.5 mg/kg/injection, schedule: Q01DX009 (ip), vehicle: saline with Tween-80",111 % of control
same,T/C,[14],151 % of control
same,T/C,[15],109 % of control
COc1cccc2c1C(=O)c1nccc3cc4c(c-2c13)OCO4,T/C,"dose: 30.0 mg/kg/injection, schedule: Q01DX005 (ip), vehicle: Klucel (hydroxypropylcellulose) (HPC)",91 % of control
same,T/C,[19],90 % of control
same,T/C,[20],110 % of control
CN1CC2CC3=C(CCC45CC6C(C=C34)C63CCC4(CC67CCC8C9(C)CCCC8%10C(C6CC4CC7%10)N(C)C9)OC53)C(C)(C2)C1 (stereo not drawn),T/C,"dose: 12.5 mg/kg/injection, schedule: Q01DX009 (ip), vehicle: Klucel (hydroxypropylcellulose) (HPC)",93 % of control
same,T/C,"dose: 25.0 mg/kg/injection, schedule: Q01DX009 (ip), vehicle: Klucel (hydroxypropylcellulose) (HPC)",103 % of control
same,T/C,[22],111 % of control
CCCC(=O)Nc1cc([N+](=O)[O-])c([N+](=O)[O-])cc1OC,T/C,[19],94 % of control
same,T/C,[20],91 % of control
same,T/C,[21],94 % of control
NC(CCCCC(N)C(=O)c1ccccc1)C(=O)c1ccccc1 (stereo not drawn),T/C,[9],98 % of control
same,T/C,[10],93 % of control
same,T/C,"dose: 240.0 mg/kg/injection, schedule: Q01DX005 (ip), vehicle: saline with Tween-80",94 % of control
COc1cccc(/C=N\O)c1,T/C,[15],104 % of control
same,T/C,"dose: 200.0 mg/kg/injection, schedule: Q01DX009 (ip), vehicle: saline with Tween-80",100 % of control
same,T/C,"dose: 400.0 mg/kg/injection, schedule: Q01DX009 (ip), vehicle: saline with Tween-80",104 % of control
CNC(=O)OCc1c(COC(=O)NC)c(-c2c(F)cccc2F)n2c1CCC2,T/C,[3],166 % of control
same,T/C,"dose: 12.5 mg/kg/injection, schedule: Q01DX009 (ip), vehicle: distilled water + Tween-80",155 % of control
same,T/C,"dose: 25.0 mg/kg/injection, schedule: Q01DX009 (ip), vehicle: distilled water + Tween-80",108 % of control
same,T/C,[5],88 % of control
CCOC(=O)c1nc2nc3cc(OC)c(OC)cc3cc2c(=O)[nH]1,T/C,"dose: 25.0 mg/kg/injection, schedule: Q01DX005 (ip), vehicle: Klucel (hydroxypropylcellulose) (HPC)",93 % of control
same,T/C,[11],87 % of control
same,T/C,[12],86 % of control and 89 % of control
same,T/C,[13],91 % of control
NCCN1C(=O)c2ccccc2C1(O)c1ccc(Cl)cc1 (stereo not drawn),T/C,[22],102 % of control
same,T/C,[23],97 % of control
same,T/C,"dose: 200.0 mg/kg/injection, schedule: Q01DX009 (ip), vehicle: Klucel (hydroxypropylcellulose) (HPC)",98 % of control
CCC(c1ccc(OC)cc1)C(CC)c1ccc(O)c(CN2CCN(C)CC2)c1 (stereo not drawn),T/C,"dose: 25.0 mg/kg/injection, schedule: Q01DX009 (ip), vehicle: saline with Tween-80",123 % of control
same,T/C,[14],119 % of control
same,T/C,[15],119 % of control
